The nature of data set [1]: Foam test of DOSS solutions with added foam control agent (based on ASTM D 1173-53). The settings on record: for Foam height after 1 min / Foam height after 10 min / Initial foam height: 0.1 wt % foam control agent added to 0.1 wt % DOSS in water; for Initial foam height: ambient temperature. Type of data set: physicochemical. The source says:
Dioctyl sodium sulfosuccinate (DOSS) is a commonly used surfactant in waterborne compositions. DOSS is capable of forming stable foams when dissolved in water. The foam control characteristics of various foam control agents may be assessed by measuring the foam generated by a 0.1 wt % aqueous solution of DOSS and comparing this to the foam generated after the addition of foam control agent to a 0.1 wt % DOSS solution. The DOSS utilized in these measurements was an Aerosol OT 75% surfactant obtained from Cytec Industries. The foaming and foam stability of DOSS were measured using a procedure based upon ASTM D 1173-53 at ambient temperature, typically 23° C.
In these tests, an aqueous solution of DOSS or the filtrate from the DOSS/foam control agent mixture is added from an elevated foam pipette to a foam receiver containing the same solution. The foam height is measured at the completion of the addition (“Initial Foam Height”) and the time required for the foam to dissipate at the air-liquid interface (“Time to 0 Foam”) is recorded. This test provides a comparison between the foaming characteristics of various aqueous compositions. The results for the foam control agents prepared in Examples 1-28 are reported in Table 1 along with comparative data for a 0.1 wt % solution of DOSS with no added foam control agent (Example 29).

The nature of data set [2]: Dynamic surface tension of aqueous solutions, maximum bubble pressure method. Format: physicochemical. As to conditions: for γ at 0.1 wt %, 0.1 b/s / γ at 0.1 wt %, 1 b/s / γ at 0.1 wt %, 6 b/s / γ at 0.1 wt %, 20 b/s: 0.1 wt % in distilled water.
Description: Dynamic surface tension data were obtained for the soluble portion of these samples using the maximum bubble pressure method at bubble rates from 0.1 bubbles/sec (b/s) to 20 b/s.
The relative efficiency of surface tension reduction can be obtained by comparing surface tension reduction of solutions containing the same amount of different surfactants. Such data are given for 0.1 wt % solutions of the foam control agents at 0.1, 1, 6 and 20 bubbles/second (b/s). The limiting surface tensions at 0.1, 1, 6 and 20 b/s represent the lowest surface tensions in water which can be achieved at the given surface creation rates for a given surfactant regardless of the amount of surfactant used and is used to evaluate the effectiveness of a surfactant. In most cases the limiting surface tension was taken at 1.0 wt % since the foam control agent was insoluble at this concentration. In the case where the foam control agent was soluble at 1.0 wt %, the limiting surface tension was taken at 5.0 wt % (where the samples were insoluble). These values give information about the relative ability to a surfactant to reduce surface defects under near-equilibrium conditions (0.1 b/s) through very dynamic conditions (20 b/s).
Where [3] appears, read: saturated solution made using 1.0 wt % in water.
The mark [4] stands for this setting: saturated solution made using 5.0 wt % in water.

Marks after values point to notes of the source that are not given here.

As to `CCCCC(CC)COCC(O)CNCCN` (mixture of isomers) [EDA/1 EHGE], in data set [1], the “Foam height after 1 min” value worked out at 0.2 cm, the “Foam height after 10 min” value is 0 cm and the Initial foam height stood at 1.5 cm. For the same compound, in data set [2], the “γ at 0.1 wt %, 0.1 b/s” value was determined as 28.6 dyne/cm; the “γ at 0.1 wt %, 1 b/s” value was found to be 37.3 dyne/cm; the “γ at 0.1 wt %, 6 b/s” value was 54.7 dyne/cm; the “γ at 0.1 wt %, 20 b/s” value is given as 63.3 dyne/cm. Moreover, in data set [2] (setting [3]), the “γ limiting, 0.1 b/s” value worked out at 27.4 dyne/cm; the “γ limiting, 1 b/s” value was determined as 28.3 dyne/cm; the “γ limiting, 6 b/s” value is on record as 30.6 dyne/cm; the “γ limiting, 20 b/s” value was determined as 32.5 dyne/cm.

With `CCCCOCC(O)CNC1CCC(CC2CCC(N)CC2)CC1` (mixture of isomers) [PACM/1 BGE], in data set [1], the “Foam height after 1 min” value is listed as 0 cm, the “Foam height after 10 min” value came out at 0 cm and the Initial foam height was found to be 2.3 cm. Further, in data set [2], the “γ at 0.1 wt %, 0.1 b/s” value is listed as 44.7 dyne/cm; the “γ at 0.1 wt %, 1 b/s” value came to 47.0 dyne/cm; the “γ at 0.1 wt %, 6 b/s” value was 50.3 dyne/cm; the “γ at 0.1 wt %, 20 b/s” value amounted to 55.2 dyne/cm. In data set [2] (setting [3]), the “γ limiting, 0.1 b/s” value is recorded as 43.5 dyne/cm; the “γ limiting, 1 b/s” value is given as 44.5 dyne/cm; the “γ limiting, 6 b/s” value was found to be 46.2 dyne/cm; the “γ limiting, 20 b/s” value came out at 48.7 dyne/cm.

Take `CCCCOCC(O)CNCCN` (racemic) [EDA/1 BGE]: in data set [1], the “Foam height after 1 min” value turned out to be 2.0 cm, the “Foam height after 10 min” value worked out at 1.4 cm and the Initial foam height was determined as 3.5 cm. Besides, the “Effect on foaming of DOSS solution (in words)” value in data set [1] (added to the 0.1 wt % aqueous DOSS solution) was “increase in foaming”. Also, in data set [2], the “γ at 0.1 wt %, 0.1 b/s” value worked out at 46.1 dyne/cm; the “γ at 0.1 wt %, 1 b/s” value was determined as 49.4 dyne/cm; the “γ at 0.1 wt %, 6 b/s” value is on record as 53.4 dyne/cm; the “γ at 0.1 wt %, 20 b/s” value is on record as 59.9 dyne/cm. Further, in data set [2] (setting [3]), the “γ limiting, 0.1 b/s” value is on record as 36.7 dyne/cm; the “γ limiting, 1 b/s” value is on record as 37.2 dyne/cm; the “γ limiting, 6 b/s” value is on record as 38.1 dyne/cm; the “γ limiting, 20 b/s” value is on record as 39.8 dyne/cm.

With `CC(C)COCC(O)CNCCN` (racemic) [EDA/1 IBGE], in data set [1], the “Foam height after 1 min” value worked out at 1.0 cm, the “Foam height after 10 min” value was determined as 0.3 cm and the Initial foam height is given as 1.5 cm. For the same compound, in data set [2], the “γ at 0.1 wt %, 0.1 b/s” value amounted to 47.9 dyne/cm; the “γ at 0.1 wt %, 1 b/s” value is given as 51.9 dyne/cm; the “γ at 0.1 wt %, 6 b/s” value came out at 53.8 dyne/cm; the “γ at 0.1 wt %, 20 b/s” value is given as 59.6 dyne/cm. In data set [2] (setting [4]), the “γ limiting, 0.1 b/s” value is on record as 29.7 dyne/cm; the “γ limiting, 1 b/s” value is on record as 30.1 dyne/cm; the “γ limiting, 6 b/s” value stood at 30.5 dyne/cm; the “γ limiting, 20 b/s” value is reported as 31.7^b dyne/cm.

For the compound `CCCCOCC(O)CNCCCCCCN` (racemic) [HDA/1 BGE], in data set [1], the “Foam height after 1 min” value is 0.4 cm, the “Foam height after 10 min” value was 0 cm and the Initial foam height came to 1.4 cm. Also, in data set [2], the “γ at 0.1 wt %, 0.1 b/s” value is reported as 42.3 dyne/cm; the “γ at 0.1 wt %, 1 b/s” value is on record as 44.8 dyne/cm; the “γ at 0.1 wt %, 6 b/s” value is 47.9 dyne/cm; the “γ at 0.1 wt %, 20 b/s” value was 52.6 dyne/cm. In data set [2] (setting [3]), the “γ limiting, 0.1 b/s” value is reported as 39.3 dyne/cm; the “γ limiting, 1 b/s” value was 40.1 dyne/cm; the “γ limiting, 6 b/s” value came out at 41.1 dyne/cm; the “γ limiting, 20 b/s” value was found to be 42.9 dyne/cm.

As for `CCCCOCC(O)CNCCCOCCOCCOCCCN` (stereo not shown) [DAPDEG/1 BGE], in data set [1], the “Foam height after 1 min” value is 0.8 cm, the “Foam height after 10 min” value is listed as 0.2 cm and the Initial foam height worked out at 1.7 cm. Moreover, in data set [2], the “γ at 0.1 wt %, 0.1 b/s” value came out at 50.3 dyne/cm; the “γ at 0.1 wt %, 1 b/s” value stood at 54.1 dyne/cm; the “γ at 0.1 wt %, 6 b/s” value is recorded as 56.7 dyne/cm; the “γ at 0.1 wt %, 20 b/s” value came to 61.0 dyne/cm. In data set [2] (setting [3]), the “γ limiting, 0.1 b/s” value stood at 36.4 dyne/cm; the “γ limiting, 1 b/s” value is 40.3 dyne/cm; the “γ limiting, 6 b/s” value is recorded as 42.9 dyne/cm; the “γ limiting, 20 b/s” value came out at 45.7 dyne/cm.

Turning to `CCCCOCC(O)CNCCCOCCOCCOCCCN(CC(O)COCCCC)CC(O)COCCCC` (stereo not shown) [DAPDEG/3 BGE], in data set [1], the “Foam height after 1 min” value was found to be 0.9 cm, the “Foam height after 10 min” value turned out to be 0.1 cm and the Initial foam height was found to be 1.9 cm. Also, in data set [2], the “γ at 0.1 wt %, 0.1 b/s” value is 38.0 dyne/cm; the “γ at 0.1 wt %, 1 b/s” value is on record as 39.4 dyne/cm; the “γ at 0.1 wt %, 6 b/s” value was 42.1 dyne/cm; the “γ at 0.1 wt %, 20 b/s” value is 47.6 dyne/cm. Also, in data set [2] (setting [3]), the “γ limiting, 0.1 b/s” value is 33.5 dyne/cm; the “γ limiting, 1 b/s” value is 38.7 dyne/cm; the “γ limiting, 6 b/s” value stood at 34.3 dyne/cm; the “γ limiting, 20 b/s” value is given as 36.1 dyne/cm.

For the compound `CCCCOCC(O)CN(CCCOCCOCCOCCCN(CC(O)COCCCC)CC(O)COCCCC)CC(O)COCCCC` (stereo not shown) [DAPDEG/4 BGE], in data set [1], the “Foam height after 1 min” value was found to be 1.2 cm, the “Foam height after 10 min” value is recorded as 0.2 cm and the Initial foam height is reported as 2.3 cm. Moreover, in data set [2], the “γ at 0.1 wt %, 0.1 b/s” value was found to be 37.4 dyne/cm; the “γ at 0.1 wt %, 1 b/s” value is 38.9 dyne/cm; the “γ at 0.1 wt %, 6 b/s” value is 42.0 dyne/cm; the “γ at 0.1 wt %, 20 b/s” value is recorded as 50.7 dyne/cm. For the same compound, in data set [2] (setting [3]), the “γ limiting, 0.1 b/s” value was determined as 34.2 dyne/cm; the “γ limiting, 1 b/s” value worked out at 34.5 dyne/cm; the “γ limiting, 6 b/s” value is given as 35.5 dyne/cm; the “γ limiting, 20 b/s” value worked out at 39.1 dyne/cm.

As for `CCCCOCC(O)CNCCN(CC(O)COCCCC)CC(O)COCCCC` (stereo not shown) [EDA/3 BGE], in data set [1], the “Foam height after 1 min” value is listed as 1.4 cm, the “Foam height after 10 min” value came to 1.2 cm and the Initial foam height stood at 2.0 cm. Moreover, in data set [2], the “γ at 0.1 wt %, 0.1 b/s” value stood at 37.6 dyne/cm; the “γ at 0.1 wt %, 1 b/s” value is reported as 39.6 dyne/cm; the “γ at 0.1 wt %, 6 b/s” value is reported as 43.2 dyne/cm; the “γ at 0.1 wt %, 20 b/s” value was 51.3 dyne/cm. Further, in data set [2] (setting [3]), the “γ limiting, 0.1 b/s” value amounted to 34.9 dyne/cm; the “γ limiting, 1 b/s” value is listed as 35.6 dyne/cm; the “γ limiting, 6 b/s” value was determined as 36.5 dyne/cm; the “γ limiting, 20 b/s” value is on record as 38.3 dyne/cm.

With `CCCCC(CC)COCC(O)CNCCN(CC(O)COCC(CC)CCCC)CC(O)COCC(CC)CCCC` (stereo not shown) [EDA/3 EHGE], in data set [1], the “Foam height after 1 min” value came to 1.5 cm, the “Foam height after 10 min” value worked out at 1.2 cm and the Initial foam height is 2.1 cm. Also, in data set [2], the “γ at 0.1 wt %, 0.1 b/s” value came out at 45.3 dyne/cm; the “γ at 0.1 wt %, 1 b/s” value is given as 58.7 dyne/cm; the “γ at 0.1 wt %, 6 b/s” value turned out to be 70.5 dyne/cm; the “γ at 0.1 wt %, 20 b/s” value is 70.9 dyne/cm. Further, in data set [2] (setting [3]), the “γ limiting, 0.1 b/s” value stood at 33.5 dyne/cm; the “γ limiting, 1 b/s” value is on record as 36.0 dyne/cm; the “γ limiting, 6 b/s” value was 47.1 dyne/cm; the “γ limiting, 20 b/s” value amounted to 48.7 dyne/cm.

Take `CC(C)COCC(O)CNCCN(CC(O)COCC(C)C)CC(O)COCC(C)C` (stereo not shown) [EDA/3 IBGE]: in data set [1], the “Foam height after 1 min” value is reported as 0.8 cm, the “Foam height after 10 min” value is 0.7 cm and the Initial foam height was 0.9 cm. For the same compound, in data set [2], the “γ at 0.1 wt %, 0.1 b/s” value is reported as 38.9 dyne/cm; the “γ at 0.1 wt %, 1 b/s” value was 42.5 dyne/cm; the “γ at 0.1 wt %, 6 b/s” value amounted to 44.1 dyne/cm; the “γ at 0.1 wt %, 20 b/s” value is recorded as 50.3 dyne/cm. Further, in data set [2] (setting [3]), the “γ limiting, 0.1 b/s” value is reported as 33.3 dyne/cm; the “γ limiting, 1 b/s” value was determined as 34.3 dyne/cm; the “γ limiting, 6 b/s” value amounted to 35.0 dyne/cm; the “γ limiting, 20 b/s” value is given as 35.6 dyne/cm.

Consider `CCCCOCC(O)CN(CCN(CC(O)COCCCC)CC(O)COCCCC)CC(O)COCCCC` (stereo not shown) [EDA/4 BGE], for which, in data set [1], the “Foam height after 1 min” value turned out to be 1.3 cm, the “Foam height after 10 min” value amounted to 1.2 cm and the Initial foam height came out at 1.9 cm. In data set [2], the “γ at 0.1 wt %, 0.1 b/s” value is given as 36.7 dyne/cm; the “γ at 0.1 wt %, 1 b/s” value is on record as 38.9 dyne/cm; the “γ at 0.1 wt %, 6 b/s” value worked out at 44.4 dyne/cm; the “γ at 0.1 wt %, 20 b/s” value was 58.4 dyne/cm. In data set [2] (setting [3]), the “γ limiting, 0.1 b/s” value is 35.9 dyne/cm; the “γ limiting, 1 b/s” value came to 37.0 dyne/cm; the “γ limiting, 6 b/s” value worked out at 39.2 dyne/cm; the “γ limiting, 20 b/s” value stood at 43.0 dyne/cm.

These data come from patent publication US6746623B2, “Alkyl glycidyl ether-capped diamine foam controlling agent” (Air Products and Chemicals, Inc., priority 2002, dated 2004).
